Results as given in ChEMBL document CHEMBL3774320, “SAR exploration at the C-3 position of tetrahydro-β-carboline sstr3 antagonists” (Bioorg Med Chem Lett, 2016).

Columns and labels:
Mus musculus = species on record: Mus musculus; conditions: in vivo, po, 10 mg/kg
Rattus norvegicus [1] = assay: Half life in rat at 1 mg/kg, iv; conditions: in vivo
[2] = molecular target: Voltage-gated inwardly rectifying potassium channel KCNH2 (Homo sapiens, UniProt Q12809); assay: Binding affinity to human ERG
[3] = Clearance in mouse plasma at 4 mg/kg, iv
[4] = Half life in mouse at 4 mg/kg, iv; conditions: in vivo
[5] = molecular target: T1, Somatostatin receptor type 3 (Homo sapiens, UniProt P32745)
Description: Binding affinity to human somatostatin receptor type 3

in vivo [6] = conditions: mouse, po, 10 mg/kg
Rattus norvegicus [7] = species on record: Rattus norvegicus; conditions: in vivo, po, 2 mg/kg
Rattus norvegicus [8] = assay: Volume of distribution at steady state in rat at 1 mg/kg, iv and at 2 mg/kg, po; conditions: in vivo
in vivo [9] = conditions: rat, po, 2 mg/kg
[10] = Volume of distribution at steady state in mouse at 4 mg/kg, iv and at 10 mg/kg, po; conditions: in vivo
[11] = molecular target: T1, Somatostatin receptor type 3; remark: listed apart in the source
Description: Antagonist activity at human somatostatin receptor type 3 assessed as inhibition of cAMP levels

T1 sequence (P32745 whole entry): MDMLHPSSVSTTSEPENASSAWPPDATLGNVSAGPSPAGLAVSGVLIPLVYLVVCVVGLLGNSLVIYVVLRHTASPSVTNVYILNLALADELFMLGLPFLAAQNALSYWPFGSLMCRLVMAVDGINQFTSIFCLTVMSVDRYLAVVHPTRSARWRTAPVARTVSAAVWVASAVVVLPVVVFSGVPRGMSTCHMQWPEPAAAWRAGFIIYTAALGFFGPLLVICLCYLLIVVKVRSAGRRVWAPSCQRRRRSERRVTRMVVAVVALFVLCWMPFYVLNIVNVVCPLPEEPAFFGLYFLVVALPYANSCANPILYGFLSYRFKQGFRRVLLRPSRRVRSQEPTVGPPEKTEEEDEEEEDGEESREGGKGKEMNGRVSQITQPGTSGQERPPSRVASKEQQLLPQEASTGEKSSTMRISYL
Sequence of Voltage-gated inwardly rectifying potassium channel KCNH2 (Q12809 whole entry): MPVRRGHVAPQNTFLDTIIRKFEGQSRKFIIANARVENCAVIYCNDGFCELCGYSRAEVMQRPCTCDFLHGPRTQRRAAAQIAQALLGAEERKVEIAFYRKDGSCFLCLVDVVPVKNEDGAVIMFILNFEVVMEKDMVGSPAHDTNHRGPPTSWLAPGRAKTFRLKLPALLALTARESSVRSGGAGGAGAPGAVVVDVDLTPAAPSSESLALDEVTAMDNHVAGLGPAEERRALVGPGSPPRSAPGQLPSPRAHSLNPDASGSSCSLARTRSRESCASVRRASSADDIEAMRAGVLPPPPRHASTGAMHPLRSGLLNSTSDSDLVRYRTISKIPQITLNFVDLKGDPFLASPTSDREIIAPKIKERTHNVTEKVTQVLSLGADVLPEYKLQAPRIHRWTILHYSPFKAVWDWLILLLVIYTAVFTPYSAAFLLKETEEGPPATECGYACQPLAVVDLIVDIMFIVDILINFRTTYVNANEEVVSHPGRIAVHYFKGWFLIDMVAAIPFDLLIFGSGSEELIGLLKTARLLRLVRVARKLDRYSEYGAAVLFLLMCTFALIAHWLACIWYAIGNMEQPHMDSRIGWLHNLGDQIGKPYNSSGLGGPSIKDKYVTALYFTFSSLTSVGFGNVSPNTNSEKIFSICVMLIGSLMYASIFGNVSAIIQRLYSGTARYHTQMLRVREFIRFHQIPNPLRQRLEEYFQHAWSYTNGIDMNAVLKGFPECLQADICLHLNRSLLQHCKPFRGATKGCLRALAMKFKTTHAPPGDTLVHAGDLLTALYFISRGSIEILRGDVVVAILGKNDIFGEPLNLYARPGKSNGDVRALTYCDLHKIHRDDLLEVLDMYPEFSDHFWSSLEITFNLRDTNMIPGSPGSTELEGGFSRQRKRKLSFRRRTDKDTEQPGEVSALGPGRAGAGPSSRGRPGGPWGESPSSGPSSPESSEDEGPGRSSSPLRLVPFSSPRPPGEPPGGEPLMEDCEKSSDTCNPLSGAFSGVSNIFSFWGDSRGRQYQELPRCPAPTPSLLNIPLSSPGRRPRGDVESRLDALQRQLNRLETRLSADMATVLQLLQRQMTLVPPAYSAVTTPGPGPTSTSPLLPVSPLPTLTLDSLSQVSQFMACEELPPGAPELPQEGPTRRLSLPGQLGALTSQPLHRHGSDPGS

Compound: CC1(c2nc(-c3ccccc3)c[nH]2)Cc2c([nH]c3ccccc23)C(C2CCOCC2)N1 (stereo in doubt; 6a)
- AUC/dose (Mus musculus): 0.31 µM·h/mg/kg
- t1/2 (Rattus norvegicus [1]): 0.96 h
- IC50 [2]: 2180 nM
- clearance [3]: 77 mL/min/kg
- half-life [4]: 1.3 h
- IC50 [5]: 23 nM
- bioavailability (in vivo [6]): 58%
- AUC/dose (Rattus norvegicus [7]): 0.28 µM·h/mg/kg
- Vdss (Rattus norvegicus [8]): 13.2 L/kg
- bioavailability (in vivo [9]): 49%
- Vd [10]: 4.6 L/kg
- EC50 [11]: 17 nM
